pIC50: −log10 of the molar value.
Experiments:
[1] = molecular target: Mast/stem cell growth factor receptor Kit (Homo sapiens, UniProt P10721); test: Inhibition of c-KIT tyrosine kinase (unknown origin) after 30 mins by HTRF method
[2] = molecular target: Vascular endothelial growth factor receptor 2 (Homo sapiens, UniProt P35968); test: Inhibition of VEGFR-2 tyrosine kinase (unknown origin) after 30 mins by HTRF method
Sequence of Vascular endothelial growth factor receptor 2 (P35968 whole entry): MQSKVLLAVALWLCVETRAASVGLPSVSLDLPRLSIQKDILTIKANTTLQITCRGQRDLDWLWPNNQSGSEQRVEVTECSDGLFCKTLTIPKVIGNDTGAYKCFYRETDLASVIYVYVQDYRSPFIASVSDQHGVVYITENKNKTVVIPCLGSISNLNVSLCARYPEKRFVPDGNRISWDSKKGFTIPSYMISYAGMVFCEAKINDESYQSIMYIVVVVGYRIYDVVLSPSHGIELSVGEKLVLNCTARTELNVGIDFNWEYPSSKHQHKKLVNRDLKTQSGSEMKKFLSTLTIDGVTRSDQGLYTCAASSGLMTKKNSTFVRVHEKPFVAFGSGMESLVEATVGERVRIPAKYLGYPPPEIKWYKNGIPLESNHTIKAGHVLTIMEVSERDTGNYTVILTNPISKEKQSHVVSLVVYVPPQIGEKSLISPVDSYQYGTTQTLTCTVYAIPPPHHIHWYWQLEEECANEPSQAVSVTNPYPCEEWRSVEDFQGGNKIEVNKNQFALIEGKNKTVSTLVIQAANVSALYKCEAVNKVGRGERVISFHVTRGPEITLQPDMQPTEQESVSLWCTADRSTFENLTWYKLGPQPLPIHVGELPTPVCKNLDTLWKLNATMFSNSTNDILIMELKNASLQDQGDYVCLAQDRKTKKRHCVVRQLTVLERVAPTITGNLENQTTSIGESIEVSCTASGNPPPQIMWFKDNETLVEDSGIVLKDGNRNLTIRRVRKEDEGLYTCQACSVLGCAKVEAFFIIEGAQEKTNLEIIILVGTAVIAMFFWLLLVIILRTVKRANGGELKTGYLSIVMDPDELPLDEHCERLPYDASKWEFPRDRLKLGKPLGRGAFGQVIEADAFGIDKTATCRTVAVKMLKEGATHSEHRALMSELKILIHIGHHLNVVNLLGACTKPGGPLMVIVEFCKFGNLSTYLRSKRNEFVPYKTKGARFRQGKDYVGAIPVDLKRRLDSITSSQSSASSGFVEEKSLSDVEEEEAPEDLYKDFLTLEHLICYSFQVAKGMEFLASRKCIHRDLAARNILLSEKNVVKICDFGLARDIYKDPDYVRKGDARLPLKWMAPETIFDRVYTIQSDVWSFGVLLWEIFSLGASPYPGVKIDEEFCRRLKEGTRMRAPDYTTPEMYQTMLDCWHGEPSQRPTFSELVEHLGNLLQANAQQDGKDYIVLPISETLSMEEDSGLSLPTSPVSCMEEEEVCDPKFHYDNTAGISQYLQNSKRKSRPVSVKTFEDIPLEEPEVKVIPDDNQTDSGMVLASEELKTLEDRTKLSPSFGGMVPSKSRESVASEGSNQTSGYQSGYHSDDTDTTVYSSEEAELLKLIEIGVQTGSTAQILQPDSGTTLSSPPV

Sequence of Mast/stem cell growth factor receptor Kit (P10721 whole entry): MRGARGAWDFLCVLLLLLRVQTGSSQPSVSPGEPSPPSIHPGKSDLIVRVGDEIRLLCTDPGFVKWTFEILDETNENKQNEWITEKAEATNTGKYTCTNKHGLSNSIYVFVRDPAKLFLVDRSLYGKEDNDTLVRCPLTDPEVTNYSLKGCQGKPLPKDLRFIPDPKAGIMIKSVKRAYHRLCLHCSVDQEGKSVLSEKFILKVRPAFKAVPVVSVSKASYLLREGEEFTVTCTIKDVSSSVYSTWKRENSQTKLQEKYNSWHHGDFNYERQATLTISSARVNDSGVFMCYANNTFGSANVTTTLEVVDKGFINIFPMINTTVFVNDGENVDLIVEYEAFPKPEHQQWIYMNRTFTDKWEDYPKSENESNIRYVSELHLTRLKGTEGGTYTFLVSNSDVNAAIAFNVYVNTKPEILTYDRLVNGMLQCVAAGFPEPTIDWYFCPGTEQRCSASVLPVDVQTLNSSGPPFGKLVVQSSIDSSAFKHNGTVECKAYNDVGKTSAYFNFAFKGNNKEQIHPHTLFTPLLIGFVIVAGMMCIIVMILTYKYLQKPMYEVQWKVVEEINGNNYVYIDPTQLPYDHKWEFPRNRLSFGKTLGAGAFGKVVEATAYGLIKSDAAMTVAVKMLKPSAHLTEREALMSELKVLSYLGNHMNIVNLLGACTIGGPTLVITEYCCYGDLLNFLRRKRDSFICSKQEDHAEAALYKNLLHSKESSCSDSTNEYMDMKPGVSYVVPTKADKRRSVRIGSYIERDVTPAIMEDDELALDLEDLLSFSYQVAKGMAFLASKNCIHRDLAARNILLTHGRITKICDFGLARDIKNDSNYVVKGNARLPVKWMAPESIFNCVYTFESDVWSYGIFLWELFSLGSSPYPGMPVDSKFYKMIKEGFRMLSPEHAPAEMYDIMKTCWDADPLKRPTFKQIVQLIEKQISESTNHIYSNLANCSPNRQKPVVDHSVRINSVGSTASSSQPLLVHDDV

Row | Structure (SMILES) | pIC50 [1] | pIC50 [2]
1 | CN(c1ccc2cn(C)nc2c1)c1ccnc(Nc2ccc(OC(F)(F)F)cc2)n1 | 7.08 | 7.92
2 | Cc1c2ccc(N(C)c3ccnc(Nc4ccc(OC(F)(F)F)cc4)n3)cc2nn1C | 7.05 | 7.14
3 | COc1cccc(Nc2nccc(N(C)c3ccc4c(C)n(C)nc4c3)n2)c1 | 7.14 | 7.42
4 | CN(c1ccc2cn(C)nc2c1)c1ccnc(Nc2cccc(Cl)c2)n1 | 7.14 | 7.14
5 | CSc1ccc(Nc2nccc(N(C)c3ccc4c(C)n(C)nc4c3)n2)cc1 | 7.15 | 7.29
6 | CN(c1ccc2cn(C)nc2c1)c1ccnc(Nc2cccc(F)c2)n1 | 7.02 | 7.03
7 | COc1cccc(Nc2nccc(N(C)c3ccc4cn(C)nc4c3)n2)c1 | 7.11 | 6.97

Further lines, results first:

Row | pIC50 [1] | pIC50 [2] | Structure (SMILES)
8 | 7.21 | 7.55 | Cc1cc(C)cc(Nc2nccc(N(C)c3ccc4cn(C)nc4c3)n2)c1
9 | 7.01 | 7.19 | Cc1c2ccc(N(C)c3ccnc(Nc4cccc(Br)c4)n3)cc2nn1C
10 | 7.06 | 7.38 | Cc1cccc(Nc2nccc(N(C)c3ccc4c(C)n(C)nc4c3)n2)c1
11 | 7.10 | 7.60 | Cc1c2ccc(N(C)c3ccnc(Nc4cccc(Cl)c4)n3)cc2nn1C
12 | 7.40 | 7.68 | Cc1cc(C)cc(Nc2nccc(N(C)c3ccc4c(C)n(C)nc4c3)n2)c1
13 | 6.99 | 7.11 | Cc1c2ccc(N(C)c3ccnc(Nc4cccc(F)c4)n3)cc2nn1C
